These results are taken from patent publication US20240009190A1, “COMBINATION CANCER THERAPY USING CHK INHIBITOR” (SHANGHAI HUAYU BIOTECHNOLOGY CO., LTD., priority 2020, published 2024).

Series [1] has as its system CT-26 WT cells. In words: CT-26 WT subcutaneous tumor model, CHK inhibitors at lower dose with anti-m-PD-1 antibody (Example 2). The conditions noted are these: for Average tumor size: compounds 15 mg/kg tail vein once per day, anti-m-PD-1 10 mg/kg IP once every five days; for Tumor weight based TGI: compounds 15 mg/kg, anti-m-PD-1 10 mg/kg; for Tumor weight, Average: group average of 8 mice; for Tumor weight, Mouse no. 1 / Tumor weight, Mouse no. 2 / Tumor weight, Mouse no. 3 / Tumor weight, Mouse no. 4 / Tumor weight, Mouse no. 5 / Tumor weight, Mouse no. 6 / Tumor weight, Mouse no. 7 / Tumor weight, Mouse no. 8: individual mouse. Type of series: in vivo, BALB/c female mice. The protocol:
The anti-tumor effect of Compound 6 at a lower dose in combination with an anti-PD-1 antibody was studied in this Example. Further, three compounds obtained by structurally modifying Compound 6, i.e., Compound 6-1, Compound 6-2 and Compound 6-3, were tested alone or in combination with an anti-PD-1 antibody for their anti-tumor effects.
At Day 0, 105 BALB/c female mice, 4-5 weeks old, were subcutaneously injected with about 200.0 μL of the CT-26 WT cell medium containing about 5×10^5 cells, respectively.
At Day 5, 80 tumor-bearing mice were randomly assigned to ten groups according to their body weights, 8 mice per group. The remaining mice were subject to euthanasia.
The ten groups of animals were administered with an anti-m-PD-1 antibody (BE0146, BioXcell) in PBS (21-040-CVR, BioXcell) at 1.0 mg/mL, Compound 6 in saline at 1.5 mg/mL, Compound 6-1 in saline at 1.5 mg/mL, Compound 6-2 in saline at 1.5 mg/mL, Compound 6-3 in saline at 1.5 mg/mL, the anti-m-PD-1 antibody+Compound 6, the anti-m-PD-1 antibody+Compound 6-1, the anti-m-PD-1 antibody+Compound 6-2, the anti-m-PD-1 antibody+Compound 6-3, and the control vehicle (saline), respectively, at doses shown in Table 3 below.
(§1) Mice were observed every day for their physical conditions and activities, and mice body weight and tumor volume were measured every Tuesday, Thursday and Sunday. The tumor volume (V) was calculated as (length×width^2)/2.
(§2) At Day 23, mice were subject to euthanasia, from which tumors were collected, weighed and photographed. Mice body weights, tumor sizes and tumor weights were analyzed using the t-test in SPSS, and group differences were deemed statistically significant when the p-value was 0.05 or less. Tumor weight based tumor growth inhibition (TGI) and Zheng-Jun Jin's Q value were calculated.

A short description of series [2]: Mice body weight in CT-26 WT tumor model (Example 2). Type of series: in vivo, BALB/c female mice. As to conditions: for Average body weight: compounds 15 mg/kg tail vein once per day, anti-m-PD-1 10 mg/kg IP once every five days; for average mice weight, tumor weight deducted: compounds 15 mg/kg, anti-m-PD-1 10 mg/kg. On the procedure:
as §1, §2

Series [3] has as its system MC38 cells. In words: MC38 tumor model in transgenic mice, Compound 6, anti-PD-1 antibody and gemcitabine (Example 5). Type of series: in vivo, C57BL/6-Pdcd1^em(hPDCD1) Cd274^em1(hPD-L1)/Smoc mice. The conditions noted are these: Day 23; Compound 6 15 mg/kg IP QD × 14; GEM 20 mg/kg IV QW × 2; anti-PD-1 10 mg/kg IP Q5D × 3. The protocol:
MC38 cells were maintained at 37° C. in 5% CO2 in RPMI 1640 medium (10-040-CV, Corning cellgro) supplemented with 10% FBS (10270-106, GIBCO) and used before the 10th subculture.
Female C57BL/6-Pdcd1^em(hPDCD1) Cd274^em1(hPD-L1)/Smoc mice (Shanghai Model Organisms), 20-25 g, were subcutaneously injected with about 5×10^5 MC38 cells, respectively.
When tumors grew to 50-70 mm^3, these mice were randomly assigned to 8 groups, 8 mice per group, this day was at Day 9. From Day 9, the animals were administered with gemcitabine (GEM) in saline at 20 mg/mL, an anti-PD-1 antibody (Toripalimab, Shanghai Junshi Biosciences Co., Ltd. China) in saline at 40 mg/mL, Compound 6 in saline at 8 mg/mL, Compound 6+gemcitabine, gemcitabine+anti-PD-1, Compound 6+anti-PD-1, Compound 6+gemcitabine+anti-PD-1, and the control vehicle (5% GS), respectively, according to the dosing regimen shown in Table 11 below.
Mice were observed every day for their physical conditions and activities, and mice body weight and tumor volume were measured every other day. The tumor volume (V) was calculated as (length×width^2)/2.
Mice body weights, and tumor sizes were analyzed using the t-test in SPSS, and group differences were deemed statistically significant when the p-value was 0.05 or less.
Tumor growth inhibition (TGI) was calculated by the following formula. Tumor growth inhibition=(average tumor size in vehicle group-average tumor size in administration group)/average tumor size in vehicle group×100%
Zheng-Jun Jin's Q value was calculated as described above.

As for `NC(=O)c1nnc(OC2CCCNC2)c2cc(-c3cccc(F)c3)sc12` (stereo not shown) [Compound 6-1, 2-(3-fluorophenyl)-4-(3-piperidinyloxy)-thieno[2,3-d]pyridazine-7-carboxylic acid amide], the Average tumor size in series [1] (Day 9) turned out to be 171.59 mm^3; in series [1] (Day 10), 257.64 mm^3; in series [1] (Day 12), 367.95 mm^3; in series [1] (Day 14), 550.08 mm^3; in series [1] (Day 16) it was 677.06 mm^3; in series [1] (Day 18) it was 780.61 mm^3. In addition, the values for the Average tumor size in series [1] (Day 20), in series [1] (Day 22) and in series [1] (Day 23) were 972.02 mm^3, 1062.24 mm^3 and 1179.61 mm^3, respectively. Moreover, the “Tumor weight based TGI” value in series [1] (Day 23) worked out at 45.63%. Besides, the “Tumor weight, Average” value in series [1] (Day 23) was 1.54 g. Also, the “Tumor weight, Mouse no. 1” value in series [1] (Day 23) is given as 0.87 g. Also, the “Tumor weight, Mouse no. 2” value in series [1] (Day 23) is listed as 1.19 g. Also, the “Tumor weight, Mouse no. 3” value in series [1] (Day 23) is on record as 2.32 g. For the same molecule, the “Tumor weight, Mouse no. 4” value in series [1] (Day 23) was determined as 2.87 g. In series [1] (Day 23), the “Tumor weight, Mouse no. 5” value came to 1.58 g. Moreover, the “Tumor weight, Mouse no. 6” value in series [1] (Day 23) turned out to be 1.68 g. Also, the “Tumor weight, Mouse no. 7” value in series [1] (Day 23) turned out to be 1.31 g. In addition, in series [1] (Day 23), the “Tumor weight, Mouse no. 8” value is listed as 0.49 g. The Average body weight was determined as 16.29 g in series [2] (Day 9); 16.75 g in series [2] (Day 10); 16.89 g in series [2] (Day 12); 17.18 g in series [2] (Day 14); 17.79 g in series [2] (Day 16); 17.99 g in series [2] (Day 18). For the same molecule, the figures for the Average body weight in series [2] (Day 20), in series [2] (Day 22) and in series [2] (Day 23) were 18.32 g, 18.57 g and 19.31 g, respectively. In series [2] (Day 23), the “average mice weight, tumor weight deducted” value (shortened to “average mice weight”) is 17.77 g.
Take `NC(=O)c1nnc(SC2CCCNC2)c2cc(-c3cccc(F)c3)sc12` (stereo not shown) [Compound 6-2, 2-(3-fluorophenyl)-4-(3-piperidinylthio)-thieno[2,3-d]pyridazine-7-carboxylic acid amide]: the Average tumor size in series [1] (Day 9) came to 196.37 mm^3; in series [1] (Day 10), 278.84 mm^3; in series [1] (Day 12), 391.83 mm^3; in series [1] (Day 14), 570.64 mm^3; in series [1] (Day 16) it was 698.18 mm^3; in series [1] (Day 18), 805.13 mm^3. Besides, the Average tumor size was found to be 974.34 mm^3 in series [1] (Day 20), 1196.22 mm^3 in series [1] (Day 22) and 1334.63 mm^3 in series [1] (Day 23). In addition, in series [1] (Day 23), the “Tumor weight based TGI” value is recorded as 43.82%. Further, the “Tumor weight, Average” value in series [1] (Day 23) turned out to be 1.59 g. In addition, in series [1] (Day 23), the “Tumor weight, Mouse no. 1” value amounted to 0.84 g. The “Tumor weight, Mouse no. 2” value in series [1] (Day 23) was 1.58 g. The “Tumor weight, Mouse no. 3” value in series [1] (Day 23) amounted to 0.84 g. Further, the “Tumor weight, Mouse no. 4” value in series [1] (Day 23) is reported as 2.56 g. Moreover, the “Tumor weight, Mouse no. 5” value in series [1] (Day 23) is given as 1.78 g. Also, the “Tumor weight, Mouse no. 6” value in series [1] (Day 23) amounted to 2.12 g. For the same molecule, the “Tumor weight, Mouse no. 7” value in series [1] (Day 23) is given as 0.89 g. Further, in series [1] (Day 23), the “Tumor weight, Mouse no. 8” value was determined as 2.11 g. The Average body weight in series [2] (Day 9) stood at 16.45 g; in series [2] (Day 10), 16.69 g; in series [2] (Day 12), 16.78 g; in series [2] (Day 14), 17.22 g; in series [2] (Day 16), 17.62 g; in series [2] (Day 18) it was 18.05 g. Besides, the Average body weight in series [2] (Day 20) amounted to 18.67 g; in series [2] (Day 22), 19.14 g; in series [2] (Day 23), 19.63 g. In addition, the “average mice weight” value in series [2] (Day 23) is reported as 18.04 g.
As for `NC(=O)c1nnc(CC2CCCNC2)c2cc(-c3cc(Cl)cc(Cl)c3)sc12` (stereo not shown) [Compound 6-3, 2-(3,5-dichlorophenyl)-4-(3-piperidinemethyl)-thieno[2,3-d]pyridazinyl-7-formamide], the Average tumor size was 162.03 mm^3 in series [1] (Day 9); 282.00 mm^3 in series [1] (Day 10); 417.93 mm^3 in series [1] (Day 12); 527.17 mm^3 in series [1] (Day 14); 718.27 mm^3 in series [1] (Day 16); 828.07 mm^3 in series [1] (Day 18). Moreover, the Average tumor size is 1072.57 mm^3 in series [1] (Day 20), 1334.48 mm^3 in series [1] (Day 22) and 1558.87 mm^3 in series [1] (Day 23). Also, the “Tumor weight based TGI” value in series [1] (Day 23) is on record as 32.73%. The “Tumor weight, Average” value in series [1] (Day 23) was determined as 1.90 g. Moreover, the “Tumor weight, Mouse no. 1” value in series [1] (Day 23) is listed as 2.85 g. For the same molecule, the “Tumor weight, Mouse no. 2” value in series [1] (Day 23) worked out at 1.24 g. Moreover, the “Tumor weight, Mouse no. 3” value in series [1] (Day 23) was 2.76 g. Further, the “Tumor weight, Mouse no. 4” value in series [1] (Day 23) turned out to be 1.31 g. Moreover, in series [1] (Day 23), the “Tumor weight, Mouse no. 5” value is on record as 1.97 g. Moreover, the “Tumor weight, Mouse no. 6” value in series [1] (Day 23) worked out at 1.03 g. For the same molecule, the “Tumor weight, Mouse no. 7” value in series [1] (Day 23) is recorded as 3.12 g. Besides, the “Tumor weight, Mouse no. 8” value in series [1] (Day 23) stood at 0.95 g. Further, the Average body weight in series [2] (Day 9) is reported as 15.99 g; in series [2] (Day 10), 16.25 g; in series [2] (Day 12) it was 16.51 g; in series [2] (Day 14) it was 17.26 g; in series [2] (Day 16), 17.91 g; in series [2] (Day 18), 18.13 g. Moreover, the Average body weight in series [2] (Day 20) was 18.75 g; in series [2] (Day 22), 19.38 g; in series [2] (Day 23), 20.06 g. The “average mice weight” value in series [2] (Day 23) is given as 18.16 g.
Regarding `Nc1ccn([C@@H]2O[C@H](CO)[C@@H](O)C2(F)F)c(=O)n1` [GEM, gemcitabine, reference compound], the “TGI based on tumor sizes” value in series [3] was 30.02%.
